Data on two compounds can be found in patent publication US20190093163A1, “COMPOSITIONS AND METHODS FOR MAINTAINING SPLICING FIDELITY” (President and Fellows of Harvard College, priority 2015, published 2019).

For this test, the system named is SF1. The experiment in a line: Immunoblots of SF1 in WT MEFs treated with TORC1 inhibitors. Type of test: cell-based. The settings on record: mouse embryonic fibroblasts; rapamycin 20 nM, Torin 250 nM. (In general: In western blotting, separated proteins are transferred to a membrane and probed.)

Description: To control for the SF1 antibody specificity, WT MEF transfected with non-targeting control siRNAs (siCt) or SF1 siRNA for 72 h and grown in 10% FBS, are shown on the right side of the blot. Biological duplicates are shown except for the siRNA treated lanes.
Immunoblotting was performed as in FIG. 14, Panel G. Biological duplicates are shown except for the siRNA treated lanes.
The inverted splicing reporter WBM535 was made by injecting modified minigene reporter plasmids into N2 worms. The plasmids were made by deleting the (+2) frameshift in the EGFP minigene and inserting a (+2) frameshift into the mCherry minigene. Worms were grown and maintained on standard nematode growth media (NGM) seeded with E. coli (OP50-1). E. coli bacteria were cultured overnight in LB at 37° C., after which 100 μl of liquid culture was seeded on plates to grow for 2 days at room temperature. Lifespans—All lifespans were conducted at 20° C. unless otherwise noted in figure legend. Lifespans were performed as described in Burkewitz et al. (93). Graphpad Prism 6 was used to plot survival curves and determine median lifespan. Survival curves were compared and p values calculated using the log-rank (Mantel-Cox) analysis method. […] RNA interference—All RNAi constructs came from the Ahringer RNAi library, except hrp-2 and hrpf-1 RNAi constructs, which originated from the Vidal RNAi library. RNAi experiments were carried out using E. coli HT115 bacteria on standard NGM plates containing 100 μg/ml Carbenicillin. […] NGM plus Carbenicillin plates were seeded 48 hours before use. Respective dsRNA expressing HT115 bacteria were induced by adding 100 μl IPTG (100 mM) one hour before introducing worms to the plate. RNAi was induced for all experiments from egg hatch. Solid plate-based dietary restriction assays—Solid sDR assays were performed as described by Ching et al. (79). Plates were prepared in advance and stored at 4° C.

Consider `CO[C@H]1C[C@@H]2CC[C@@H](C)[C@@](O)(O2)C(=O)C(=O)N2CCCC[C@H]2C(=O)O[C@H]([C@H](C)C[C@@H]2CC[C@@H](O)[C@H](OC)C2)CC(=O)[C@H](C)/C=C(\C)[C@@H](O)[C@@H](OC)C(=O)[C@H](C)C[C@H](C)/C=C/C=C/C=C/1C` [rapamycin], for which the “total SF1 levels” value is given as “no effect”.

Turning to `CCC(=O)N1CCN(c2ccc(-n3c(=O)ccc4cnc5ccc(-c6cnc7ccccc7c6)cc5c43)cc2C(F)(F)F)CC1` [torin, Torin1], the “SF1 gel shifts indicative of altered phosphorylation” value is “nor did were SF1 gel shifts indicative of altered phosphorylation seen” and the “total SF1 levels” value was “no effect”.
